From US9827265B1, “Method for attenuating free radical formation resulting from a bodily insult” (MD Scientific, LLC, priority 2012, dated 2017) come the findings set out here.

Like-named read-outs stand apart in the source and are kept apart here.

The mark [1] stands for this setting: high risk subjects with injection of iodinated contrast in the cardiac arteries, total 1.96 mEq/kg, 40% prior to and 60% during and after the contrast, sodium concentration 154 mEq/L, death primarily from cardiac failure.

Under setting [1], `[Cl-].[Na+]` [sodium chloride (saline), sodium chloride] displayed an incidence of death of 10.1%.

Take `O=C([O-])O.[Na+]` [sodium bicarbonate solution, sodium bicarbonate]: the incidence of death is listed as 3.2% under setting [1] and “same incidence of death in both study cohorts” (subjects with other types of iodinated contrast injection (other non-cardiac arteries), compared between both study cohorts).
